The target in experiment [1] is T1, WT STING (Homo sapiens, UniProt Q86WV6, H232R). As to the kind of experiment: Differential scanning fluorimetry (DSF) with WT STING. The format is binding. The arrangement: 8xHis (N, cleaved yes); SUMO (N, cleaved yes); made in house; host or cells: E. coli Rosetta-gami B (DE3). The note with it: thermal shift vs apoprotein; 150 μM CDN; truncated human WT STING 0.1 mg/ml. The essentials: (§1)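 […] STING proteins, alone or with CDNs, in triplicate, thermally denatured on a real-time PCR cycler. Denaturing temperatures taken from first-derivative curves; shift = mean Tm of STING–CDN complex minus mean Tm of apoprotein.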
Target sequence in this assay (Q86WV6 140-343 H232R): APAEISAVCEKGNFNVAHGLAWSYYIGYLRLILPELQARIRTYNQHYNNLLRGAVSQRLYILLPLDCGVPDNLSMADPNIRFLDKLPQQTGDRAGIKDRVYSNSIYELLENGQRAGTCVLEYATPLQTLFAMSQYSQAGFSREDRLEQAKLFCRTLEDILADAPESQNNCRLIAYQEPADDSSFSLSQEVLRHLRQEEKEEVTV
Background: DSF heats the sample and reads unfolding from a dye or from intrinsic fluorescence.

The target in experiment [2] is T1, WT STING. Description: 293T WT STING standard reporter assay. The arrangement: host or cells: 293T (ATCC CRL-3216), stably transfected, with 4xISRE firefly luciferase reporter. In kind it is cell-based. The note with it: 293T wtSTING-FL cells, ISRE firefly luciferase; no digitonin; 7 hours with compounds; 8-point curve.
Target sequence in this assay (Q86WV6 whole entry H232R, the tested form may be a part): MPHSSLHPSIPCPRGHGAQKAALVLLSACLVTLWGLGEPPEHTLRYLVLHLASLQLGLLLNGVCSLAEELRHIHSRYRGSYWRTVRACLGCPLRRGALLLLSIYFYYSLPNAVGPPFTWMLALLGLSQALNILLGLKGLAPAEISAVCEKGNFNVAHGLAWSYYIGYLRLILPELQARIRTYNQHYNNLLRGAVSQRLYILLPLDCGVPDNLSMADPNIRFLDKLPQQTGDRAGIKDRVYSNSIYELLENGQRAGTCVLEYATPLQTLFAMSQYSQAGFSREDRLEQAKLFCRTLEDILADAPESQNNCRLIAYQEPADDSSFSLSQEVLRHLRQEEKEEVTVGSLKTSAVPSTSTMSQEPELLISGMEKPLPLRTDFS
The target in the next experiment is T2, AQ STING (G230A-R293Q) (Homo sapiens, UniProt Q86WV6, G230A/H232R/R293Q).
T2 construct: 8xHis (N, cleaved yes); SUMO (N, cleaved yes); made in house; host or cells: E. coli Rosetta-gami B (DE3)
T2 sequence (Q86WV6 140-343 G230A/H232R/R293Q): as the sequence (Q86WV6 140-343 H232R) above, with G91A, R154Q counted along it
Description: Differential scanning fluorimetry (DSF) with AQ STING. In kind it is binding. The following applies: thermal shift vs apoprotein; 150 μM CDN; truncated human AQ STING 0.1 mg/ml. In a few lines:
as §1

The test system of experiment [3] is peripheral blood mononuclear cells (PBMC). Description: Peripheral blood mononuclear cell (PBMC) assay. In kind it is cell-based. The following applies: PBMC, 1 h with compounds, washed, 15 hour incubation, average of one to four donors. In a few lines:
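PBMCs exposed to serially diluted compound for 1 h at 37° C, 5% CO2, then washed twice and cultured 15 h in compound-free medium. IFN-α, IFN-γ and TNF-α measured in collected medium by multiplex bead immunoassay. Values averaged over runs from one to four donors.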

In experiment [4] the target is T1, WT STING. Description: Digitonin assay using 293T wtSTING-FL reporter cells. The format is cell-based. The arrangement: host or cells: 293T (ATCC CRL-3216), stably transfected, with 4xISRE firefly luciferase reporter. The note with it: 293T wtSTING-FL cells, ISRE firefly luciferase; compounds in Digitonin buffer 30 minutes, then 5 hours; 8-point curve.
Target sequence in this assay (Q86WV6 whole entry H232R, the tested form may be a part): as the sequence (Q86WV6 whole entry H232R, the tested form may be a part) above

Each structure is given as a SMILES string. pEC50: −log10 of the molar value. Like-named read-outs stand apart in the source and are kept apart here.

For `Nc1ncnc2c1ncn2[C@@H]1C[C@@H]2COP(=O)(O)OC3C[C@H](n4cnc5c(N)ncnc54)O[C@@H]3COP(=O)(O)OC2C1F` (stereo partly drawn) [Compound 124, (2R,3aS,7aR,9R,10S,10aR,14aR)-2,9-bis(6-amino-9H-purin-9-yl)-10-fluoro-5,12-dihydroxydecahydro-2H-cyclopenta[d]furo[3,2-j][1,3,7,9]tetraoxa[2,8]diphosphacyclododecine 5,12-dioxide], the ΔTm at 150 µM stood at 6.2 °C on WT STING [1] and 12.8 °C at AQ STING (G230A-R293Q). Further, the pEC50 at WT STING [2] was 5.31; at WT STING [4] it was 7.30. The EC50 in experiment [3] (interferon-alpha level, read-out: PBMC EC50 (μM) IFN-α) came to 290 µM; in experiment [3] (interferon-gamma level, read-out: PBMC EC50 (μM) IFN-γ), 43 µM; in experiment [3] (tumor necrosis factor-alpha level, read-out: PBMC EC50 (μM) TNF-α) it was 223 µM.

The term ΔTm denotes the shift of the melting midpoint relative to a reference. Usually pEC50 stands for the EC50 on a negative log10 scale, so that one unit is a factor of ten. As a reminder, the EC50 is the concentration giving half of the maximal effect.

The values above are taken from patent publication US11766447B2, “3′3′-cyclic dinucleotide analogue comprising a cyclopentanyl modified nucleotide as sting modulator” (INSTITUTE OF ORGANIC CHEMISTRY AND BIOCHEMISTRY ASCR, V.V.I., priority 2019, dated 2023).
